Assay [1] addresses Prostaglandin E2 receptor EP2 subtype (Homo sapiens, UniProt P43116). The assay can be described thus: hEP2 cAMP Assay. Here is the method: Cells are counted washed and resuspended in assay buffer (AB; HBSS, 20 mM HEPES, 0.2% BSA; 2 mM IBMX). […] Plate is pre-incubated 45 minutes at RT. […] Plate is incubated 30 minutes at RT.
The target in assay [2] is Prostaglandin E2 receptor EP4 subtype (Homo sapiens, UniProt P35408). Briefly: hEP4 cAMP Assay.
Prostaglandin E2 receptor EP4 subtype, sequence (P35408 whole entry): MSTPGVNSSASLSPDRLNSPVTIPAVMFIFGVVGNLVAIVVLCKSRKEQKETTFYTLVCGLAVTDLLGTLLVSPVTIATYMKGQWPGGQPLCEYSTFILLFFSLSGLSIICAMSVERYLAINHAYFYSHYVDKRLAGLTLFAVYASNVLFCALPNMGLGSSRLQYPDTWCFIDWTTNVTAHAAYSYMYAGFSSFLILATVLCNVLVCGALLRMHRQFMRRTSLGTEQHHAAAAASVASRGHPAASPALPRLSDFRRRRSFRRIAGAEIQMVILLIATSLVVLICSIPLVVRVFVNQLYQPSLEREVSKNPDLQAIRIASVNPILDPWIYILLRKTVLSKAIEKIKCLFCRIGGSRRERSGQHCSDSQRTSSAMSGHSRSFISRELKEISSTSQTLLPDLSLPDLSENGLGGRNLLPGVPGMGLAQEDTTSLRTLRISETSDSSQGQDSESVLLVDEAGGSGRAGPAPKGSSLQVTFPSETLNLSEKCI
Experimental: Cells are counted washed and resuspended in assay buffer (AB; HBSS, 20 mM HEPES, 0.2% BSA; 2 mM IBMX). […] Plate is pre-incubated 45 minutes at RT. Subsequently, 2.5 microliters of PGE2 (final conc. 6 nM) are transferred into the assay plate. Plate is incubated 30 minutes at RT. […] For each compound concentration the percentage of cAMP compared to DMSO control value as average ±STDEV (each concentration is measured in duplicate) is calculated.

Prostaglandin E2 receptor EP2 subtype, sequence (P43116 whole entry): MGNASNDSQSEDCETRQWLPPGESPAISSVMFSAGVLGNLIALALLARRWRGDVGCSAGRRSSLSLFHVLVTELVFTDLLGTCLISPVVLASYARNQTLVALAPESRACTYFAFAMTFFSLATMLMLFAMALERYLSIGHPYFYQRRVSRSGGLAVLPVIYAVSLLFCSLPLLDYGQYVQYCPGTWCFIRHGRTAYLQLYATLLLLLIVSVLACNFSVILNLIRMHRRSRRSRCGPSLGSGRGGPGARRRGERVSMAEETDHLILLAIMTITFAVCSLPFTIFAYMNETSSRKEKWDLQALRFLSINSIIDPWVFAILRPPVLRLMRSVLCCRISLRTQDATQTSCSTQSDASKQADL

For `CCc1cc(-c2cc(NCCc3c(OC)cc4ccccc4c3C)ncn2)ccc1C(=O)O` [US11839613, Example 446], the values for the half-inhibitory concentration (IC50) in assay [1] and in assay [2] were 160 nM and 98 nM, respectively.
On the same counts, the results for `CCOc1cc(-c2cc(NCCc3cc4c(cc3OC(F)F)OCCO4)ncn2)sc1C(=O)O` [US11839613, Example 433] are 57 nM and 13 nM.
Turning to `CCOc1cc2c(cc1CCNc1cc(-c3ccc(CC(=O)O)c(OC(C)C)c3)ncn1)OCCO2` [US11839613, Example 425], the 50% inhibitory concentration (IC50) is 226 nM in assay [1] and 356 nM in assay [2].
On the same counts, the results for `CCOc1cc(-c2cc(NCCc3cc4ccsc4c(F)c3OC)ncn2)ccc1CC(=O)O` [US11839613, Example 406] are 220 nM and 101 nM.
For the molecule `COc1cc(-c2cc(NCCc3cc(F)c4sccc4c3)ncn2)ccc1OCCC(=O)O` [US11839613, Example 438], the figures for the IC50 in assay [1] and in assay [2] were 708 nM and 29 nM, respectively.
On to `COc1cc2ccccc2c(C)c1CCNc1cc(-c2ccc(C(=O)O)c(OC3CC3)c2)ncn1` [US11839613, Example 448], for which the IC50 in assay [1] came to 55 nM; in assay [2] it was 26 nM.
Consider `COc1cc2c(c(C)c1CCNc1cc(-c3ccc(C(=O)O)c(OC(C)C)c3)ncn1)OCCO2` [US11839613, Example 432], for which the IC50 amounted to 10 nM in assay [1] and 72 nM in assay [2].
Regarding `CC(C)Cc1cc(-c2cc(NCCc3ccc4sccc4c3F)ncn2)ccc1CC(=O)O` [US11839613, Example 409], the half-inhibitory concentration (IC50) was found to be 486 nM in assay [1] and 87 nM in assay [2].
`C#Cc1cc2c(cc1CCNc1cc(-c3ccc(C(=O)O)c(OCC)c3)ncn1)OCCO2` [US11839613, Example 439]: the 50% inhibitory concentration (IC50) in assay [1] was found to be 33 nM; in assay [2], 139 nM.
For the molecule `CCCc1cc(-c2cc(NCCc3c(OC)cc4ccccc4c3C)ncn2)ccc1CC(=O)O` [US11839613, Example 388], the IC50 was 626 nM in assay [1] and 51 nM in assay [2].
In the case of `O=C(O)c1ccc(-c2cc(NCCc3cc(F)c4sccc4c3)ncn2)cc1OC1CC1` [US11839613, Example 449], the IC50 turned out to be 131 nM in assay [1] and 21 nM in assay [2].
As for `CCCc1cc(-c2cc(NCCc3c(OC)cc4ccccc4c3C)ncn2)ccc1C(=O)O` [US11839613, Example 380], the results for the half-maximal inhibitory concentration (IC50) in assay [1] and in assay [2] were 124 nM and 54 nM, respectively.
On the same counts, the results for `CCOc1cc(-c2cc(NCCc3cc(C)c4sccc4c3)ncn2)sc1C(=O)O` [US11839613, Example 391] are 243 nM and 6 nM.
As for `COc1cc2c(cc1CCNc1cc(-c3ccc(CC(=O)O)c(OC(F)(F)F)c3)ncn1)OCCO2` [US11839613, Example 450], the IC50 in assay [1] turned out to be 165 nM; in assay [2] it was 80 nM.
For the molecule `CCCc1cc(-c2cc(NCCc3ccc4sccc4c3F)ncn2)ccc1C(=O)O` [US11839613, Example 378], the IC50 in assay [1] amounted to 110 nM; in assay [2], 66 nM.
Consider `CCCc1cc(-c2cc(NCCc3c(OC)cc4c(c3F)OCCO4)ncn2)ccc1CC(=O)O` [US11839613, Example 408], for which the IC50 was 126 nM in assay [1] and 20 nM in assay [2].
For the molecule `CCOc1cc(-c2cc(NCCc3ccc4scc(Cl)c4c3)ncn2)ccc1CC(=O)O` [US11839613, Example 431], the IC50 worked out at 460 nM in assay [1] and 43 nM in assay [2].
Turning to `CCCc1cc(-c2cc(NCCc3cc4c(cc3OCC)OCCO4)ncn2)ccc1CC(=O)O` [US11839613, Example 402], the IC50 in assay [1] was 48 nM; in assay [2], 131 nM.
For `CCOc1cc(-c2cc(NCCc3ccc4sccc4c3F)ncn2)ccc1OCCC(=O)O` [US11839613, Example 421], the IC50 in assay [1] came out at 247 nM; in assay [2], 27 nM.
Turning to `CCOc1cc2c(cc1CCNc1cc(-c3ccc(C(=O)O)c(CC(C)C)c3)ncn1)OCCO2` [US11839613, Example 417], the results for the IC50 in assay [1] and in assay [2] were 31 nM and 240 nM, respectively.
On the same counts, the results for `CC(C)Cc1cc(-c2cc(NCCc3cc(F)c4sccc4c3)ncn2)ccc1C(=O)O` [US11839613, Example 414] are 505 nM and 88 nM.
Consider `COc1cc2c(cc1CCNc1cc(-c3ccc(CC(=O)O)c(OC)c3)ncn1)OCCO2` [US11839613, Example 383], for which the figures for the half-inhibitory concentration (IC50) in assay [1] and in assay [2] were 650 nM and 270 nM, respectively.
The corresponding values for `CCCOc1cc(-c2cc(NCCc3ccc4sccc4c3F)ncn2)ccc1CC(=O)O` [US11839613, Example 393] are 439 nM and 81 nM.
Take `CCOc1cc(-c2cc(NCCc3c(OC)cc4c(c3F)OCCO4)ncn2)ccc1C(=O)O` [US11839613, Example 435]: the IC50 in assay [1] is 28 nM; in assay [2] it was 80 nM.
In the case of `COc1cc2sccc2cc1CCNc1cc(-c2ccc(CC(=O)O)c(OC)c2)ncn1` [US11839613, Example 381], the values for the IC50 in assay [1] and in assay [2] were 165 nM and 119 nM, respectively.
For the molecule `CC(C)Oc1cc(-c2cc(NCCc3ccc4sccc4c3F)ncn2)ccc1CC(=O)O` [US11839613, Example 424], the values for the half-maximal inhibitory concentration (IC50) in assay [1] and in assay [2] were 782 nM and 89 nM, respectively.
`CCCc1cc(-c2cc(NCCc3cc4c(cc3OC)OCCO4)ncn2)ccc1C(=O)O` [US11839613, Example 379]: the values for the half-maximal inhibitory concentration (IC50) in assay [1] and in assay [2] were 87 nM and 245 nM, respectively.
`CCc1cc(-c2cc(NCCc3c(OC)cc4c(c3C)OCCO4)ncn2)ccc1CC(=O)O` [US11839613, Example 444]: the half-maximal inhibitory concentration (IC50) in assay [1] amounted to 22 nM; in assay [2] it was 80 nM.
On the same counts, the results for `CCOc1cc(-c2cc(NCCc3ccc4sccc4c3F)ncn2)cc(F)c1CC(=O)O` [US11839613, Example 375] are 294 nM and 66 nM.
On the same counts, the results for `O=C(O)c1ccc(-c2cc(NCCc3ccc4scc(Cl)c4c3)ncn2)cc1OC1CCC1` [US11839613, Example 430] are 185 nM and 40 nM.
`CCOc1cc2c(cc1CCNc1cc(-c3cc(F)c(CC(=O)O)c(OCC)c3)ncn1)OCCO2` [US11839613, Example 403]: the 50% inhibitory concentration (IC50) in assay [1] stood at 135 nM; in assay [2], 112 nM.
`CCOc1cc2c(cc1CCNc1cc(-c3ccc(CC(=O)O)c(CC(C)C)c3)ncn1)OCCO2` [US11839613, Example 412]: the concentration for half-maximal inhibition (IC50) was 57 nM in assay [1] and 79 nM in assay [2].
Regarding `CCCOc1cc(-c2cc(NCCc3cc4ccsc4cc3OC)ncn2)ccc1CC(=O)O` [US11839613, Example 392], the half-inhibitory concentration (IC50) in assay [1] came to 156 nM; in assay [2], 111 nM.
The corresponding values for `COc1c(CCNc2cc(-c3ccc(CC(=O)O)c(CC(C)C)c3)ncn2)cc2ccsc2c1F` [US11839613, Example 410] are 665 nM and 170 nM.
As to `CSc1cc(-c2cc(NCCc3cc(F)c4sccc4c3)ncn2)ccc1C(=O)O` [US11839613, Example 364], the concentration for half-maximal inhibition (IC50) in assay [1] is 37 nM; in assay [2], 18 nM.
The corresponding values for `CCCc1cc(-c2cc(NCCc3cc(F)c4sccc4c3)ncn2)ccc1C(=O)O` [US11839613, Example 389] are 231 nM and 57 nM.
The corresponding values for `CCOc1cc(-c2cc(NCCc3ccc4sccc4c3)ncn2)cc(F)c1CC(=O)O` [US11839613, Example 370] are 312 nM and 81 nM.
As to `CCOc1cc(-c2cc(NCCc3ccc4sccc4c3F)ncn2)sc1C(=O)O` [US11839613, Example 367], the half-inhibitory concentration (IC50) in assay [1] was 6 nM; in assay [2], 1 nM.
Consider `COc1c(CCNc2cc(-c3ccc(C(=O)O)c(SC)c3)ncn2)cc2ccsc2c1F` [US11839613, Example 405], for which the IC50 amounted to 7 nM in assay [1] and 18 nM in assay [2].
`CCOc1cc(-c2cc(NCCc3c(OC)cc4ccccc4c3F)ncn2)ccc1C(=O)O` [US11839613, Example 101]: the IC50 in assay [1] was determined as 102 nM; in assay [2] it was 35 nM.
On to `CCOc1cc(-c2cc(NCCc3c(OC)cc4ccccc4c3C)ncn2)ccc1OCCC(=O)O` [US11839613, Example 423], for which the results for the concentration for half-maximal inhibition (IC50) in assay [1] and in assay [2] were 230 nM and 6 nM, respectively.

One may read the IC50 as the midpoint of a concentration-inhibition curve. Lower therefore signals greater potency in that assay.

The values above are taken from BindingDB's records for patent US11839613 (Idorsia Pharmaceuticals, 2023).
